Measured values published in patent US20230302031A1, “Modulators Of Purinergic Receptors and Related Immune Checkpoint For Treating Acute Respiratory Distress Syndrome” (priority 2020, published 2023).
Like-named read-outs stand apart in the source and are kept apart here.

Legend:
ACE2 [1] = format: cell-based; settings: ACE2-A549, 24 hours; same concentrations; FIG. 14B
[2] = system: Bleomycin-induced lung inflammation; assay: Mouse model of bleomycin-induced lung inflammation; format: in vivo, C57BL/6 mice; settings: 300 μg intraperitoneally every 3 days
SARS-CoV-2 [3] = assay: SARS-CoV-2 replication in ACE2-A549 cells (RdRp and E mRNA, Spike expression); format: cell-based; settings: ACE2-A549, 48 hours; 500 μM UTP, 100 μM Diquafosol, 5 μM Denufosol; FIG. 7F-H
SARS-CoV-2 [4] = format: cell-based; settings: FIG. 7K; for ACE2 expression in response to SARS-CoV-2 infection: western blot; for intracellular expression of Spike: Vero E6, 24 hours, 50 μM PPADS, 100 μM OxATP, 100 μM BzATP
[5] = system: PMA-treated THP1 macrophages; assay: IL-1β release from LPS+ATP-stimulated PMA-THP1 macrophages (western blot/ELISA); format: cell-based, human; settings: for IL-1β release: 100 μM compound, 10 ng/mL LPS 3 hours + 5 mM ATP 6 hours, FIG. 6E, 6I
Experimental: (§1) Human THP-1 cells were cultured in RPMI 1640 media, supplemented with 10% FBS and differentiated by treatment for 3 hours with 100 nM phorbol-12-myristate-13-acetate (PMA, Invivogen). After 2 days, macrophage THP-1 cells were stimulated first 3 hours with ultrapure LPS from E. coli (10 ng/ml, LPS) and then stimulated for 6 hours with ATP (5 mM, Sigma) or treated with 50 ng or 20 ng of IFNg during 24 or 12 hours as indicated. Then, supernatants and cells were collected for western blot analysis.
(§2) Cells or supernatant were lysed in appropriated buffer (250 mM NaCl, 0.1% NP-40, 5 mM EDTA, 10 mM Na3VO4, 10 mM NaF, 5 mM DTT, 3 mM Na4P2O7, 1 mM EGTA, 10 mM Glycerol phosphate, 10 mM Tris-Hcl (pH=7.5) and the protease and phosphatase inhibitors (Roche)). Equal amount of supernatant or 10-40 μg of protein extracts were run on 4-12% or 10% SDS-PAGE and transferred at 4° C. onto a nitrocellulose membrane (0.2 Micron). After incubation for 2 hours at room temperature with 5% nonfat milk or BSA (Bovine Serum Albumine) in Tris-buffered saline and 0.1% Tween 20 (TBS-Tween), membranes were incubated with primary antibody at 4° C. overnight. […] The primary antibodies against. […] Western blots shown are representative of at least of three independent experiments.
Plasma serum from P2y2^+/+ and P2y2^−/− mice and supernatants harvested from PMA-stimulated THP1 macrophages that were depleted or not for P2Y2 or NLRP3, and/or stimulated with 10 ng/mL LPS during 3 hours and 5 mM ATP during 6 hours or with 20 ng/mL IFNγ, in presence or in absence of 100 μM Suramin, 100 μM OxATP, 100 μM Kaempferol or 100 μM Diquafosol at indicated times were analyzed using western blot or ELISA for IL-1β (Ebioscience) and IL-10 (BD) according to the manufacturers' instructions.

ACE2 [6] = format: cell-based, African green monkey; settings: Vero E6, 24 hours; 500 μM UTP, 100 μM Diquafosol, 5 μM Denufosol, 50 μM PPADS, 100 μM OxATP, 100 μM BzATP; FIG. 14A
SARS-CoV-2 [7] = assay: SARS-CoV-2 replication in Vero E6 cells (RdRp and E mRNA, quantitative RT-PCR); format: cell-based; settings: 500 μM UTP, 100 μM Diquafosol, 5 μM Denufosol; for amount of RdRp and E mRNA (viral replication): Vero E6, 16 and 24 hours of infection, 50 μM PPADS, 100 μM BzATP, FIG. 2; for replication of SARS-CoV-2 and/or associated cytopathogenic effects: Vero E6, RdRp and E mRNA, Spike-positive cells, viability, FIG. 7D, 7E, 7I-7K, 12A, 12B
[8] = system: PMA-treated THP1 macrophages; assay: IRF5 expression in IFNγ-stimulated PMA-THP1 macrophages (western blot); format: cell-based, human
Experimental: as §1, §2
Total cellular proteins were extracted and lysed in appropriated buffer containing 250 mM NaCl, 0.1% NP-40, 5 mM EDTA. 10 mM Na3VO4, 10 mM NaF, 5 mM DTT, 3 mM Na4P2O7, 1 mM EGTA, 10 mM Glycerol phosphate, 10 mM Tris-HCl (pH=7.5) and the protease and phosphatase inhibitors (Roche)). Then, 10-40 μg of protein extracts were run on 4-12% or 12% SDS-PAGE and transferred at 4° C. onto a nitrocellulose membrane (0.2 Micron). After 2 hours saturation at room temperature with 5% nonfat milk or BSA (Bovine Serum Albumin) in Tris-buffered saline and 0.1% Tween 20 (TBS-Tween), nitrocellulose membranes were incubated with primary antibody at 4° C. overnight. […] The primary antibodies against P2Y2 (#APR-010) and P2X7 (#APR-004) were obtained from Alomone laboratories. […]

SARS-CoV-2 [9] = format: cell-based; settings: Vero E6, 72 hours infection, MOI 1-2, indicated concentrations, MTT
ACE2-A549 cells = settings: ACE2-A549, 72 hours, MTT; PPADS and OxATP at 100 μM; BzATP indicated concentrations
Vero E6 cells = settings: Vero E6, 72 hours, MTT; PPADS and OxATP at 100 μM; BzATP indicated concentrations
SARS-CoV-2 [10] = format: cell-based; settings: Vero E6, 24 hours, 50 μM PPADS, 100 μM OxATP

Row | Compound | ACE2 membrane expression (ACE2 [1]) | replication of SARS-CoV-2 and/or associated cytopathogenic effects (SARS-CoV-2 [3]) | ACE2 expression in response to SARS-CoV-2 infection (SARS-CoV-2 [4]) | ACE2 membrane expression (ACE2 [6]) | amount of RdRp and E mRNA (viral replication) (SARS-CoV-2 [7]) | replication of SARS-CoV-2 and/or associated cytopathogenic effects (SARS-CoV-2 [7]) | cytopathogenicity / cytopathogenic effects of SARS-CoV-2 (SARS-CoV-2 [9]) | other results
1 | O=c1ccn([C@@H]2O[C@H](COP(=O)(O)OP(=O)(O)OP(=O)(O)OP(=O)(O)OC[C@H]3O[C@@H](n4ccc(=O)[nH]c4=O)[C@H](O)[C@@H]3O)[C@@H](O)[C@H]2O)c(=O)[nH]1 [Diquafosol] | did not change | strongly blocked the replication of SARS-CoV-2 and/or reduced associated cytopathogenic effects | repressed ACE2 down regulation | did not change | strongly reduced the amount of RdRp and E mRNA | strongly blocked the replication of SARS-CoV-2 and/or reduced associated cytopathogenic effects | exhibited inhibitory effects on cytopathogenicity | Bleomycin-induced lung inflammation ([2]; 50 UI bleomycin intratracheal, FIG. 17): abolishes Bleomycin-induced lung inflammation; lung lesions (CT scan) ([2]; day 20, FIG. 17A): reduces lung lesions induced by bleomycin treatment; IL-1β release [5]: impaired IL-1β release; release of IL-1β in supernatant ([5]; indicated concentrations, 12 hours, LPS+ATP, FIG. 1B): impaired the release of IL-1β; IFNγ-mediated increase expression of IRF5 ([8]; PMA-THP1 macrophages, FIG. 6P): impaired IFNγ-mediated increase expression of IFN regulatory factor 5 (IRF5); IRF5 expression ([8]; indicated concentrations, 20 ng IFNγ 12 hours, FIG. 1D): confirmed
2 | O=c1ccn([C@@H]2O[C@H](COP(=O)(O)OP(=O)(O)OP(=O)(O)O)[C@@H](O)[C@H]2O)c(=O)[nH]1 [UTP, Uridine 5′-triphosphate] | did not change | strongly blocked the replication of SARS-CoV-2 and/or reduced associated cytopathogenic effects | repressed ACE2 down regulation | did not change | strongly reduced the amount of RdRp and E mRNA | strongly blocked the replication of SARS-CoV-2 and/or reduced associated cytopathogenic effects | exhibited inhibitory effects on cytopathogenicity | IRF5 expression ([8]; 10 and 100 μM, 50 ng IFNγ 24 hours, FIG. 1C): decrease of IRFS expression
3 | O=c1ccn([C@@H]2O[C@H](COP(=O)(O)OP(=O)(O)OP(=O)(O)OP(=O)(O)Oc3ccccc3)[C@@H](O)[C@H]2O)c(=O)[nH]1 [MRS2768] | – | – | – | – | – | – | – | release of IL-1β in supernatant ([5]; 50 μM, 1 hour pretreatment, 10 ng/ml LPS 3 hours + 5 mM ATP 6 hours, FIG. 1A): strongly inhibited the release of IL-1β
4 | Cc1ccc(C(=O)Nc2ccc(S(=O)(=O)O)c3cc(S(=O)(=O)O)cc(S(=O)(=O)O)c23)cc1NC(=O)c1cccc(NC(=O)Nc2cccc(C(=O)Nc3cc(C(=O)Nc4ccc(S(=O)(=O)O)c5cc(S(=O)(=O)O)cc(S(=O)(=O)O)c45)ccc3C)c2)c1 [Suramin] | – | – | – | – | – | – | – | IL-1β release [5]: increased IL-1β release
5 | 2′(3′)-O-(4-Benzoylbenzoyl) adenosine 5′-triphosphate [BzATP] | did not change | – | reduces ACE2 expression levels | did not change | strongly enhanced viral replication | – | – | viability of uninfected cells (ACE2-A549 cells): did not show a significant impact; viability of uninfected cells (Vero E6 cells): did not show a significant impact; intracellular expression of Spike (SARS-CoV-2 [4]): increase of intracellular Spike expression levels; entry of SARS-CoV2 into host cells (SARS-CoV-2 [4]; Vero E6): significantly increased the entry of SARS-CoV2 into host cells
6 | Cc1nc(N=Nc2ccc(S(=O)(=O)O)cc2S(=O)(=O)O)c(COP(=O)(O)O)c(C=O)c1O [PPADS, pyridoxal-phosphate-6-azopheny-2′,4′-disulfonate] | did not change | – | – | did not change | repressed RdRp and E mRNA expression | – | reduced | viability of uninfected cells (ACE2-A549 cells): partially affected viability; viability of uninfected cells (Vero E6 cells): partially affected viability; intracellular expression of Spike (SARS-CoV-2 [4]): reduced; frequency of Spike-positive cells (SARS-CoV-2 [10]): reduced the frequency of Spike-positive cells
7 | Nc1ccn([C@H]2C[C@H](O)[C@@H](COP(=O)(O)OP(=O)(O)OP(=O)(O)OP(=O)(O)OC[C@H]3O[C@@H](n4ccc(=O)[nH]c4=O)[C@H](O)[C@@H]3O)O2)c(=O)n1 [Denufosol] | did not change | strongly blocked the replication of SARS-CoV-2 and/or reduced associated cytopathogenic effects | – | did not change | strongly reduced the amount of RdRp and E mRNA | strongly blocked the replication of SARS-CoV-2 and/or reduced associated cytopathogenic effects | exhibited inhibitory effects on cytopathogenicity | –
